The record followed here is US11447638B2, “Acetalanthraquinone derivatives useful for cellular staining” (BIOSTATUS LIMITED, priority 2016, dated 2022).

One data set deals with 2780AD. In words: Further tests against cell lines, 2780AD. Conditions: ratio to A2780. The data set is classed as cell-based. The method, then:
(§1) Further tests were carried out against A2780, 2780AD and MCP1 cell lines.

Another data set concerns MCP1. In words: Further tests against cell lines, MCP1. To be noted: ratio to A2780. The data set is classed as cell-based. The method, then:
as §1

In another data set the test system is 2780/cp70. In words: Further tests against cell lines, 2780/cp70. To be noted: ratio to A2780. The data set is classed as cell-based.
Another data set concerns A549 live cells. In words: Loading of A549 live cells, wide-field fluorescence microscopy. The data set is classed as cell-based, human. Conditions: 20 μM, 30 min incubation, FIG. 3. As to the method:
(§2) Before analysis, cells were incubated at 37° C. in the dark for the period designated. Samples were analysed directly without any further washing step. For live cell labelling cells were seeded, plated in a similar way, into a similar multi-well dish for optimal optical performance and could be used across all microscope platforms.
(§3) This basic protocol was the standard for testing the patterns of AAQ agents at 20 μM, compared to 20 μM of DRAQ5 as the benchmark reference (both in terms of cellular location and ability to detect the red fluorescence).
Low resolution wide-field fluorescence microscopy was used to evaluate cell uptake and localisation of the probe compounds. The system was an Axiovert 100 microscope (Carl Zeiss, Welwyn Garden City, UK) ×10 0.3 NA air objective lens and an ORCA-ER CCD camera (Hamamatsu, Reading, UK). Illumination was controlled by a shutter in front of the transmission lamp. Image capture was controlled using Metamorph software. Human non-small cell lung cancer A549 cell line was used as the cell model to determine whether variation of the probe loading and localisation occurred in cell population sustaining a “side population” (SP) (Smith P J, Wiltshire M, Chappell S C, Cosentino L, Burns P A, Pors K, Errington R J. Kinetic analysis of intracellular Hoechst 33342—DNA interactions by flow cytometry: misinterpretation of side population status? Cytometry A 2013; 83:161-9) with a known capacity to efflux xenobiotic molecules, including the DNA dye Hoechst 33342.
Cells were incubated for 30 min with each compound and then images were collected at a 30 ms exposure time using low resolution wide-field fluorescence microscopy. Using an Axiovert 100 microscope (Carl Zeiss, Welwyn Garden City, UK) ×10 0.3 NA air objective lens and an ORCA-ER CCD camera (Hamamatsu, Reading, UK). Illumination was controlled by a shutter in front of the transmission lamp. Image capture was controlled using Metamorph software. The calibration bar represents 50 μm.

For data set [1], the system named is fixed human osteosarcoma U-2 OS cells. In words: Labelling of fixed cells, wide-field fluorescence microscopy. The data set is classed as cell-based. To be noted: 20 μM, 1 h exposure in PBS, FIG. 2. As to the method:
Cells were seeded in a 24 well coverslip bottomed-plate, cultured overnight in McCoys media. 24 or 48 hours later the cells were washed gently with 3×2 mL PBS per well. The PBS was removed and 0.5 mL of 4% paraformaldehyde solution [a 4% paraformaldehyde solution in PBS was made fresh each time from a 16% stock solution (Thermo Fisher Scientific)] was added in each well and cells were incubated for 30 min. The paraformaldehyde was removed and cells were washed 3×2 mL PBS per well. 1 mL of PBS or HEPES was added to each well.
as §2, §3
Low resolution wide-field fluorescence microscopy was used to evaluate cell labelling in fixed human osteosarcoma U-2 OS cells. The system was an Axiovert 100 microscope (Carl Zeiss, Welwyn Garden City, UK) ×10 0.3 NA air objective lens and an ORCA-ER CCD camera (Hamamatsu, Reading, UK). Illumination was controlled by a shutter in front of the transmission lamp. Image capture was controlled using Metamorph software. This evaluates the ability of the compounds to label cellular compartments without active uptake or efflux prohibiting delivery into the given cell. Image collection was performed after 1 h of exposure to probes in PBS. The calibration bar represents 50 μm.

The next data set has as its system A549. In words: MTT cellular viability (growth inhibition) assay, A549. To be noted: Homo sapiens, 0.25-100 μM, 72 h, Table 3. The data set is classed as cell-based. The method, then:
(§4) The viability of A549 or MCF7 in response to compounds was determined using the MTT (3-(4,5-dimethylthiazolyl-2-)-2, 5-diphenyltetrazolium bromide) assay according to the protocol set out in Mosmann T., Rapid colorimetric assay for cellular growth and survival: application to proliferation and cytotoxicity assays. Journal of immunological methods 1983; 65:55-63.
(§5) Initially, cells were seeded into a rounded-bottom 96 well plate (Corning) at six different cell seeding densities (0.5×104, 1×104, 2×104, 3×104, 4×104, and 5×104) per mL of R10 media (cells/mL) in order to optimise the assay and establish the most suitable seeding assay. Concentration of 1×10^4 cells/mL was determined to be the optimum seeding density for both cell lines for 96 h total incubation. A control lane contained supplemented R10 only. The 96 well plates were incubated overnight at 37° C., 5% CO2 and 100% humidity to allow cell adhesion. Cells were then treated respectively with novel AAQs (0.25-100 μM) or growth inhibition (IC50) of compounds of the invention was studied against MCF7 and A549 cancer cell lines. Compounds were tested with a concentration range between 0.25 and 100 μM for 72 h and doxorubicin, as positive cytotoxic control, was tested in parallel at the same doses.

Data set [2] can be described thus: Absorption and fluorescence spectra of compounds in PBS or HEPES. The data set is classed as physicochemical. Conditions: for peak excitation wavelength: excitation wavelength used for fluorescence spectra of FIG. 1A/1B; for fluorescence emission, 540 nm (Ex in PBS): excited at 540 nm; for fluorescence emission, 540 nm (Ex in PBS) / fluorescence emission, λ1 nm (Ex in HEPES) / fluorescence emission, λ1 nm (Ex in PBS): 20 μM; for fluorescence emission, λ1 nm (Ex in HEPES) / fluorescence emission, λ1 nm (Ex in PBS): excited at absorption peak 1 (λ1). As to the method: The compounds were exited at 540 nm and at the wavelength of their absorption peak 1 (λ1 nm). The far-red fluorescent DNA dye DRAQ5 was used as reference.
Compounds were dissolved in DMSO (Sigma) to 20 mM stock concentration. DRAQ5 (Biostatus Ltd) was used as a control anthraquinone agent dissolved in deionised water. Working solutions were prepared in PBS (phosphate buffered saline; Sigma) or HEPES (4-(2-hydroxyethyl)-1-piperazineethanesulfonic acid; Sigma) at 20 or 40 μM. Probe solutions (20 μM), respectively in PBS or HEPES, were pipetted into a 1 mL quartz cuvette (Thermo Fisher Scientific). After obtaining baseline spectra in relevant buffer to zero the instrument, absorbance measurements were obtained using a Beckmann Coulter DU 800 UV/Visible spectrophotometer. The excitation wavelengths were scanned from 280 to 800 nm. Fluorescent spectral scans were performed using a Perkin Elmer LS-50B Luminescence spectrophotometer. To obtain emission scans, the excitation wavelength was set accordingly to the maximum values for each agent or another designated excitation wavelength that matches typical laser lines; and the emission wavelength were scanned from 400 nm to 900 nm in 1 nm increments. A Xenon flash lamp was used as the light source, with the lamp energy set to high. For each data point ten measurements were acquired with the photomultiplier tube sensitivity set at 125.
Compounds were excited at a wavelength corresponding to the first absorbance peak 1 (FIG. 1A and FIG. 1B show absorption (line) and fluorescence (dots) spectra of compounds; both are normalised to peak value.

A further data set has as its system U-2 OS cells. In words: Confocal laser scanning microscopy (CLSM) localisation analysis. The data set is classed as cell-based, human. Conditions: 30 min incubation, Ex 637 nm, Em >665 nm; for subcellular localisation by CLSM: FIG. 4 and 5. As to the method: Confocal laser scanning microscopy (CLSM) was used to analyse the localisation of compounds BST-100, BST-101 and BST-106 with the U-2 OS cells, as it permitted the acquisition of volume limited optical sections through the cell and media. Excitation (637 nm) and emission (>665 nm) values for the probe analysis were the optimal conditions. The data sets obtained were processed and assembled into a single maximum projection image.
The patterns were analysed after 30 min incubation at different z depths and eliminating the solution background. The nucleus/cytoplasm ratio was calculated to quantify the localisation of the probe per cell.
A Radiance CLSM (BioRad Microscience) was used attached to an inverted Nikon microscope. Image acquisition was performed using excitation (637 nm) and emission (>665 nm) wavelengths. The histogram plot reports the nucleus/cytoplasm index to determine DNA binding in live cells. The calibration bar represents 10 μm.
The compounds BST-108, BST-109 were analysed in the same way.

The next data set deals with A549 cells. In words: Flow cytometry analysis of cell uptake before/after hydrolysis. It counts as cell-based, human. To be noted: 20 μM, 30 min; for % ile (25): low loader cell population. As to the method:
Flow cytometry analysis was performed to evaluate the effect of pre-treatment with HCl to generate an active aldehyde on the cell uptake properties. A549 cells were incubated for 30 min with compounds of Formula (I) and its hydrolysed forms (20 μM) prior to analysis. The rate of uptake was tested in A549 cell culture media and in Aldefluor buffer, containing the MDR-blocker verapamil (Pearce and Bonnet 2007), to evaluate the effect in uptake with/without the Aldefluor assay system. Analysis was conducted in the viable subset of cells, corresponding to ˜95% of the total amount under investigation.
Aldefluor buffer contained verapamil vs. cell media. The cells were incubated with 20 μM of the respective AAQ/HAAQs (30 min) before analysis
Statistical analysis of A549 uptake before/after hydrolysis was also studied. Experiments were performed in cell media versus Aldefluor buffer. Data were processed using FlowJo software (Tree Star). DRAQ5 was used to set the dynamic range and as control dye and empty cells were used to determine auto-fluorescence.
(In general: A flow cytometer gives signals particle by particle.)

In the next data set the test system is MCF7. In words: MTT cellular viability (growth inhibition) assay, MCF7. The data set is classed as cell-based. Conditions: Homo sapiens, 0.25-100 μM, 72 h, Table 3. As to the method: as §4, §5
The mark [3] stands for this setting: solution: Aldefluor buffer with verapamil.

SMILES strings stand for the structures.

Regarding `COC(CNCCCCCCNc1ccc(NCCCCCCNCC(OC)OC)c2c1C(=O)c1c(O)ccc(O)c1C2=O)OC` [BST-300], the “RF (2780AD)” value in the data set on 2780AD turned out to be 1.07. In the data set on MCP1, the “RF (MCP1)” value worked out at 0.37. Besides, the “RF (2780/cp70)” value in the data set with 2780/cp70 came to 0.17.
For the compound `COC(CCCCNc1ccc(NCCN(C)C)c2c1C(=O)c1ccccc1C2=O)OC` [BST-106, 1-(5,5-Dimethoxypentylamino)-4-(2-(dimethylamino)ethylamino) anthracene-9,10-dione], in the data set with A549 live cells, the “fluorescence brightness / background in live cells” value is “high background” and the “staining pattern in live cells” value is reported as “heterogeneous cytoplasmic staining”. In data set [1], the “fluorescence brightness / background in fixed cells” value is “very bright background”; the “staining pattern in fixed cells” value was “diffuse cytoplasmic staining, with some perinuclear and nucleoli labelling”. For the same compound, in the data set with A549, it took 11.7 µM to reach half-maximal inhibition (IC50). Moreover, in data set [2], the peak excitation wavelength is on record as 584 nm; the “fluorescence emission, 540 nm (Ex in PBS)” value is reported as 670 nm; the “fluorescence emission, λ1 nm (Ex in HEPES)” value stood at 664 nm; the “fluorescence emission, λ1 nm (Ex in PBS)” value was 660 nm. Besides, the “subcellular localisation by CLSM” value with U-2 OS cells is “additional nuclear signal”. In addition, in the data set on A549 cells (setting [3]), the “Median (fluorescence, uptake)” value was found to be 96.13 and the “% ile (25)” value was 81.66. Besides, in the data set on A549 cells (solution: media), the “Median (fluorescence, uptake)” value came to 101.48 and the “% ile (25)” value is reported as 84.64. Also, in the data set on MCF7, the IC50 (as a rule, the concentration that inhibits the measured activity by half) was found to be 11.3 µM.
Turning to `COC(CC(=O)NCCNc1ccc(NCCN(C)C)c2c1C(=O)c1c(O)ccc(O)c1C2=O)OC` [BST-111, N-(2-(4-(2-(Dimethylamino)ethylamino)-5,8-dihydroxy-9,10-dioxo-9,10-dihydroanthracen-1-ylamino)ethyl)-3,3-dimethoxypropanamide], the “staining pattern in live cells” value in the data set on A549 live cells was “greater contrast and diffuse cellular staining”. In data set [1], the “fluorescence brightness / background in fixed cells” value is on record as “very high background fluorescence”; the “staining pattern in fixed cells” value was “cytoplasmic staining and heterogeneity on labelling of mitotic figures”. The compound also displayed a half-inhibitory concentration (IC50) in the data set with A549 of 38.2 µM. Further, in [2], the peak excitation wavelength was found to be 610 nm; the “fluorescence emission, 540 nm (Ex in PBS)” value is on record as 684 nm; the “fluorescence emission, λ1 nm (Ex in HEPES)” value was found to be 684 nm; the “fluorescence emission, λ1 nm (Ex in PBS)” value amounted to 684 nm. Also, in the data set on U-2 OS cells, the “specific feature of localisation by CLSM” value is recorded as “mainly loaded in the nuclear compartment”; the “subcellular localisation by CLSM” value was “strong nuclear uptake and perinuclear staining, with possible ER accumulation”. Also, in the data set with A549 cells (setting [3]), the “Median (fluorescence, uptake)” value turned out to be 74.94 and the “% ile (25)” value was 64.64. Also, in the data set on A549 cells (solution: media), the “Median (fluorescence, uptake)” value amounted to 72.42 and the “% ile (25)” value is reported as 62.72. This compound also registered an IC50 in the data set with MCF7 of 1.8 µM.
For the compound `COC(CNC(=O)CCNc1ccc(NCCN(C)C)c2c1C(=O)c1c(O)ccc(O)c1C2=O)OC` [BST-108, N-(2,2-Dimethoxyethyl)-3-(4-(2-(dimethylamino)ethylamino)-5,8-dihydroxy-9,10-dioxo-9,10-dihydroanthracen-1-ylamino)propanamide], the “fluorescence brightness / background in live cells” value with A549 live cells is “very bright cellular fluorescence”. Further, the “staining pattern in fixed cells” value in data set [1] was “heterogeneity in cytoplasmic staining and positive spots in the nuclei”. Moreover, in the data set on A549, the IC50 was found to be 1.7 µM. Further, in data set [2], the peak excitation wavelength came to 610 nm; the “fluorescence emission, 540 nm (Ex in PBS)” value is recorded as 692 nm; the “fluorescence emission, λ1 nm (Ex in HEPES)” value turned out to be 684 nm; the “fluorescence emission, λ1 nm (Ex in PBS)” value was 685 nm. Besides, the “subcellular localisation by CLSM” value in the data set on U-2 OS cells is “strong nuclear uptake and perinuclear staining, with possible ER accumulation”. Moreover, in the data set on A549 cells (setting [3]), the “Median (fluorescence, uptake)” value was found to be 67.08 and the “% ile (25)” value worked out at 57.65. Moreover, in the data set with A549 cells (solution: media), the “Median (fluorescence, uptake)” value was 75.48 and the “% ile (25)” value came out at 65.32. In the data set on MCF7, this compound gave a concentration for half-maximal inhibition (IC50) of 1.44 µM.
